Results reported in patent US20190084968A1, “FUMAGILLOL HETEROCYCLIC COMPOUNDS AND METHODS OF MAKING AND USING SAME” (Zafgen, Inc., priority 2015, published 2019).
Values joined by “and” are separate entries in the source; they are usually repeats but may differ in a detail not shown here. Equal entries are not always repeated. Structures can show the parent of a compound that is named as a salt.

Legend:
[1] = system: embryo/fetal development in pregnant Sprague Dawley rats; details: 6 mpk subcutaneously once every three days, Gestation Days 6-18, pregnant rats
Description: The objective of this study design was to evaluate the potential effects of disclosed compounds on embryo/fetal development when given subcutaneously to pregnant rats once every three days during the critical period of organogenesis (Gestation Days 6-18). Female, Sprague Dawley rats, approximately 10 weeks of age, time bred, were ordered from a certified vendor and housed individually housed in stainless steel cages suspended over flush pans, on a 12-hour light-dark cycle (0700-1900) at 20-26° C. and 30-70% humidity. Rats were fed a standard rodent chow and provided water ad libitum. Rats were received and housed in the facility for a period of approximately 1 to 2 days.
Compounds were formulated using 100% DMSO mixed in Sterile Water for Injection, resulting in 2% DMSO solution in water. If necessary, due to limited solubility of a test article, a higher percentage of DMSO solution in water was used. Groups of 8 mated and presumed pregnant female rats were given subcutaneous doses of vehicle or test article, once every three days, beginning on Gestation Day 6 and ending on Gestation Day 18 (Days 6, 9, 12, 15, and 18), maintained two more days, and then euthanized and necropsied on Gestation Day 20. Body weights was recorded for all animals on Gestation Days 5 (purpose of randomization), 6, 9, 12, 15, 18, and 20 (scheduled euthanasia). Food consumption by weight was recorded on Gestation Days 6, 9, 12, 15, 18, and 20 (scheduled termination).
At necropsy, the dams were examined visually for external abnormalities including palpable masses. The abdominal, thoracic, and cranial cavities and their contents were examined for abnormalities and findings will be recorded. The reproductive tract were examined to record the number of ovarian corpora lutea, the number and location of uterine implantation sites noting the position of the cervix, and the number of early resorptions, late resorptions, live fetuses, and dead fetuses. For dead fetuses and late resorptions, crown-to-rump length and weight were recorded, if possible, and the fetus was discarded. For viable fetuses, weight, sex, and grossly visible external abnormalities were recorded.

[2] = system: Diet Induced Obese (DIO) C57BL/6 mice; experiment: 10 day DIO mouse model (body weight, food intake, hematology, blood chemistry); format: in vivo
Source text: The objective of this study design was to investigate the efficacy of disclosed compounds in a 10 day DIO mouse model. Effects on body weight, food intake, hematology and blood chemistry were the primary readouts of this study design. […] Mice were fed Research Diets D12492 (60% Kcal fat, 20% Kcal carbohydrate and 20% protein) and provided water ad libitum. DIO mice were received and housed in the facility for approximately two weeks prior to the start of test article administration. On Day −4 or −3, mice were randomized into study groups based on body weight and body weights were continued to be recorded daily for the duration of the study. Daily food intake was assessed starting on Study Day −2 by weighing of the food with hopper together to avoid loss of food in transfer.
(§1) Compounds were formulated into a 100% DMSO stock (at 9 mg/mL) prior to the start, and further diluted into the target working concentration using the vehicle of 10% DMSO in water. Prior to test article administration, starting on Day −3 a dosing acclimation occured with all animals receiving a subcutaneous injection of vehicle (10% DMSO) only for 3 days. Starting on Day 1, test compounds or vehicle were administered based on individual body weight, subcutaneously, once a day for 10 days. All mice were sacrificed on Day 11, 24 hours following the final dosing on Day 10. After sacrifice, whole blood was collected and analyzed for hematology and blood chemistry parameters.
(§2) Compounds were tested vs. vehicle at various doses (1.0, 0.5, 0.3, 0.1, 0.03 mpk sc (mg per kg animal weight delivered subcutaneously), and the results are shown in Table 2 below.

[3] = system: Sprague Dawley rats on high fat diet (DIO); experiment: 11 day rat DIO model (body weight, food intake, hematology, blood chemistry); format: in vivo
Source text: The objective of this study design is to investigate the efficacy of disclosed compounds in an 11 day rat DIO model used to screen compounds for pharmacologic efficacy on endpoints related to obesity and metabolism. Effects on body weight, food intake, hematology and blood chemistries were the primary readouts of this study design. […] Rats were fed Research Diets D12451 (45% High Fat) and provided water ad libitum. Rats were received and housed in the facility for at least two or three weeks prior to start of test article administration. On Day −4 or −3, rats were randomized into study groups based on body weight and body weights were continued to be recorded daily for the duration of the study. Daily food intake was assessed starting on Study Day −2 by weighing the hopper including the food to avoid loss of food in transfer.
as §1, with “for 11” for “for 10”, “All animals” for “All mice”, “11, approximately 2” for “11, 24”, “Day 11.” for “Day 10.”
as §2

| SMILES | Rat Embryofetal @6 mpk [1] | also measured |
| --- | --- | --- |
| CO[C@@H]1[C@H](OC(=O)N2CC(CCN3CCOCC3)C2)CC[C@]2(CO2)[C@H]1[C@@]1(C)O[C@@H]1CC=C(C)C [Example 1, (3R,4S,5S,6R)-5-methoxy-4-((2R,3R)-2-methyl-3-(3-methylbut-2-en-1-yl)oxiran-2-yl)-1-oxaspiro[2.5]octan-6-yl 3-(2-morpholinoethyl)azetidine-1-carboxylate] | Negative | – |
| CO[C@@H]1[C@H](OC(=O)N2CC(CCN3CC(F)(F)C3)C2)CC[C@]2(CO2)[C@H]1[C@@]1(C)O[C@@H]1CC=C(C)C [Example 2, (3R,4S,5S,6R)-5-methoxy-4-((2R,3R)-2-methyl-3-(3-methylbut-2-enyl)oxiran-2-yl)-1-oxaspiro[2.5]octan-6-yl 3-(2-(3,3-difluoroazetidin-1-yl)ethyl)azetidine-1-carboxylate] | Negative | – |
| CO[C@@H]1[C@H](OC(=O)N2CC(CCN3CCC(O)CC3)C2)CC[C@]2(CO2)[C@H]1[C@@]1(C)O[C@@H]1CC=C(C)C [Example 7, (3R,4S,5S,6R)-5-methoxy-4-((2R,3R)-2-methyl-3-(3-methylbut-2-en-1-yl)oxiran-2-yl)-1-oxaspiro[2.5]octan-6-yl 3-(2-(4-hydroxypiperidin-1-yl)ethyl)azetidine-1-carboxylate] | – | DIO Mouse 10-day weight loss vs vehicle at indicated dose ([2]; DIO mouse, 0.3 mpk sc, once a day for 10 days): 1.8% |
| CO[C@@H]1[C@H](OC(=O)N2CC(CCN3CC4CCC(C3)O4)C2)CC[C@]2(CO2)[C@H]1[C@@]1(C)O[C@@H]1CC=C(C)C [Example 33, (4S,5S,6R)-5-methoxy-4-((2R,3R)-2-methyl-3-(3-methylbut-2-enyl)oxiran-2-yl)-1-oxaspiro[2.5]octan-6-yl 3-(2-(8-oxa-3-azabicyclo[3.2.1]octan-3-yl)ethyl)azetidine-1-carboxylate] | – | percent body weight loss vs vehicle at 0.3 mg/kg ([2]; 240 h, DIO mouse, 0.3 mpk sc, once a day for 10 days, read-out: DIO Mouse 10-day weight loss vs vehicle at indicated dose): 15.9% |
| CNC(=O)OC1CN(C(=O)O[C@@H]2CC[C@]3(CO3)[C@@H]([C@@]3(C)O[C@@H]3CC=C(C)C)[C@@H]2OC)C1 [Example 74, (3R,4S,5S,6R)-5-methoxy-4-((2R,3R)-2-methyl-3-(3-methylbut-2-enyl)oxiran-2-yl)-1-oxaspiro[2.5]octan-6-yl 3-(methylcarbamoyloxy)azetidine-1-carboxylate] | Negative | – |
| CO[C@@H]1[C@H](OC(=O)N2CC(OC(=O)N3CCN(C)CC3)C2)CC[C@]2(CO2)[C@H]1[C@@]1(C)O[C@@H]1CC=C(C)C [Example 78, 1-(((3R,4S,5S,6R)-5-methoxy-4-((2R,3R)-2-methyl-3-(3-methylbut-2-enyl)oxiran-2-yl)-1-oxaspiro[2.5]octan-6-yloxy)carbonyl)azetidin-3-yl 4-methylpiperazine-1-carboxylate] | Positive | – |
| CO[C@@H]1[C@H](OC(=O)N2CC(OC(=O)N3CCN(CC(F)(F)F)CC3)C2)CC[C@]2(CO2)[C@H]1[C@@]1(C)O[C@@H]1CC=C(C)C [Example 81, 1-(((3R,4S,5S,6R)-5-methoxy-4-((2R,3R)-2-methyl-3-(3-methylbut-2-enyl)oxiran-2-yl)-1-oxaspiro[2.5]octan-6-yloxy)carbonyl)azetidin-3-yl 4-(2,2,2-trifluoroethyl)piperazine-1-carboxylate] | Positive | – |
| CCN(CC)CCNC(=O)CCC1CN(C(=O)O[C@@H]2CC[C@]3(CO3)[C@@H]([C@@]3(C)O[C@@H]3CC=C(C)C)[C@@H]2OC)C1 [Example 88, (3R,4S,5S,6R)-5-methoxy-4-((2R,3R)-2-methyl-3-(3-methylbut-2-enyl)oxiran-2-yl)-1-oxaspiro[2.5]octan-6-yl 3-(3-(2-(diethylamino)ethylamino)-3-oxopropyl)azetidine-1-carboxylate formate] | Positive | DIO Mouse 10-day weight loss vs vehicle at indicated dose ([2]; mouse, in vivo, sc, 0.3 mg/kg): 9%; DIO Rat 11-day weight loss vs vehicle at indicated dose ([3]; rat, in vivo, sc, 0.3 mg/kg): 4.4% |
| CO[C@@H]1[C@H](OC(=O)N2CC(Cc3ccc(C)nc3)C2)CC[C@]2(CO2)[C@H]1[C@@]1(C)O[C@@H]1CC=C(C)C [Example 101, (3R,4S,5S,6R)-5-methoxy-4-((2R,3R)-2-methyl-3-(3-methylbut-2-enyl)oxiran-2-yl)-1-oxaspiro[2.5]octan-6-yl 3-((6-methylpyridin-3-yl)methyl)azetidine-1-carboxylate] | Positive | – |
| CCN(CC)CCC1CN(C(=O)O[C@@H]2CC[C@]3(CO3)[C@@H]([C@@]3(C)O[C@@H]3CC=C(C)C)[C@@H]2OC)C1 [Example 103, (3R,4S,5S,6R)-5-methoxy-4-((2R,3R)-2-methyl-3-(3-methylbut-2-enyl)oxiran-2-yl)-1-oxaspiro[2.5]octan-6-yl 3-(2-(diethylamino)ethyl)azetidine-1-carboxylate] | Positive | – |
| CCN(CC)CCCC1CN(C(=O)O[C@@H]2CC[C@]3(CO3)[C@@H]([C@@]3(C)O[C@@H]3CC=C(C)C)[C@@H]2OC)C1 [Example 104, (3R,4S,5S,6R)-5-methoxy-4-((2R,3R)-2-methyl-3-(3-methylbut-2-enyl)oxiran-2-yl)-1-oxaspiro[2.5]octan-6-yl 3-(3-(diethylamino)propyl)azetidine-1-carboxylate] | Positive | – |
| CCN(CC)CCC1CCN1C(=O)O[C@@H]1CC[C@]2(CO2)[C@@H]([C@@]2(C)O[C@@H]2CC=C(C)C)[C@@H]1OC (stereo partly drawn) [Example 106, (3R,4S,5S,6R)-5-methoxy-4-((2R,3R)-2-methyl-3-(3-methylbut-2-enyl)oxiran-2-yl)-1-oxaspiro[2.5]octan-6-yl 2-(2-(diethylamino)ethyl)azetidine-1-carboxylate] | – | DIO Mouse 10-day weight loss vs vehicle at indicated dose ([2]; DIO mouse, 0.1 mpk sc, once a day for 10 days): 2%; DIO Mouse 10-day weight loss vs vehicle at indicated dose ([2]; DIO mouse, 0.3 mpk sc, once a day for 10 days, 0.3 mg/kg): 10.8% and 0.8%; DIO Rat 11-day weight loss vs vehicle at indicated dose ([3]; DIO rat, 0.5 mpk sc, once a day for 11 days): 4.82% |
| CO[C@@H]1[C@H](OC(=O)/C=C/c2ccc(OCCN(C)C)cc2)CC[C@]2(CO2)[C@H]1[C@@]1(C)O[C@@H]1CC=C(C)C [compound A, [(3R,6R,7S,8S)-7-methoxy-8-[(2R,3R)-2-methyl-3-(3-methylbut-2-enyl)oxiran-2-yl]-2-oxaspiro[2.5]octan-6-yl] (E)-3-[4-[2-(dimethylamino)ethoxy]phenyl]prop-2-enoate, reference compound] | Positive | – |
